Source: ChEMBL document CHEMBL5030554, “Design, synthesis and biological evaluation of novel (E)-2-benzylidene-N-(3-cyano-4,5,6,7-tetrahydrobenzo[b]thiophen-2-yl)hydrazine-1-carboxamide derivatives as α-glucosidase inhibitors” (Bioorg Med Chem Lett, 2021)
Active and inactive are the calls of the source. The rule behind the calls is not given here.

Experiments:
[1] = Inhibition of Saccharomyces cerevisiae alpha-glucosidase assessed as decrease in release of p-nitrophenol using pNPG as substrate preincubated for 15 min followed by substrate addition and measured after 5 mins by spectrophotometric method
Saccharomyces cerevisiae = test: Inhibition of Saccharomyces cerevisiae alpha-glucosidase assessed as decrease in release of p-nitrophenol at 100 uM using pNPG as substrate preincubated for 15 min followed by substrate addition and measured after 5 mins by spectrophotometric method relative to control; details: time 20.0 min
Rattus norvegicus [2] = organism: Rattus norvegicus; test: Hypoglycemic activity in sucrose-treated Sprague-Dawley rat assessed as reduction in blood glucose level measured after 30 mins by oral sucrose tolerance test; type: functional, organism-based
[3] = Cytotoxicity against human L02 cells assessed as cell viability at 100 uM by MTT assay relative to control; type: cell-based; details: read-out: Activity
[4] = Cytotoxicity against human HepG2 cells assessed as cell viability at 100 uM by MTT assay relative to control; type: cell-based; details: read-out: Activity
Homo sapiens [5] = organism: Homo sapiens; test: Binding affinity to alpha-glucosidase (unknown origin) assessed as quenching of intrinsic tryptophan fluorescence of the enzyme by FRET assay
Homo sapiens [6] = organism: Homo sapiens; test: Non-competitive inhibition of alpha-glucosidase (unknown origin) assessed as decrease in Vmax with constant Km using varying levels of PNP glycoside as substrate preincubated for 30 mins followed by substrate addition and measured for 60 seconds by Lineweaver-Burk plot analysis
Rattus norvegicus [7] = organism: Rattus norvegicus; test: Hypoglycemic activity in sucrose-treated Sprague-Dawley rat assessed as reduction in blood glucose AUC measured after 2 hrs by oral sucrose tolerance test; type: functional, organism-based

IC50 [1] | inhibition (Saccharomyces cerevisiae) | Structure (SMILES) | further results
17.7 µM | 85.9% | N#Cc1c(NC(=O)N/N=C/c2ccc(O)c(O)c2O)sc2c1CCCC2 | 
13.5 µM | 89.7% | N#Cc1c(NC(=O)N/N=C/c2ccc(N(c3ccccc3)c3ccccc3)cc2)sc2c1CCCC2 | 
440 µM |  | C[C@H]1O[C@H](O[C@H]2[C@H](O)[C@@H](O)[C@@H](O[C@H]3[C@H](O)[C@@H](O)C(O)O[C@@H]3CO)O[C@@H]2CO)[C@H](O)[C@@H](O)[C@@H]1N[C@H]1C=C(CO)[C@@H](O)[C@H](O)[C@H]1O (stereo partly drawn) [ACARBOSE] | Activity (Rattus norvegicus [2]): Active
63.1 µM |  | N#Cc1c(NC(=O)NCc2ccccc2)sc2c1CCCC2 | 
68.4 µM | 70.7% | N#Cc1c(NC(=O)N/N=C/c2ccc(N3CCCC3)cc2)sc2c1CCCC2 | 
 | 0.7% | COc1cc(/C=N/NC(=O)Nc2sc3c(c2C#N)CCCC3)cc(OC)c1O | 
38.9 µM | 74.8% | Cc1ccc(/C=N/NC(=O)Nc2sc3c(c2C#N)CCCC3)cc1C | 
48.6 µM | 64.2% | CC(C)c1ccc(/C=N/NC(=O)Nc2sc3c(c2C#N)CCCC3)cc1 | 
26.5 µM | 66.6% | N#Cc1c(NC(=O)N/N=C/c2ccc(OCc3ccccc3)cc2)sc2c1CCCC2 | 
25.4 µM | 89.5% | CCc1ccc(/C=N/NC(=O)Nc2sc3c(c2C#N)CCCC3)cc1 | 
32.1 µM | 77.3% | CCN(CC)c1ccc(/C=N/NC(=O)Nc2sc3c(c2C#N)CCCC3)cc1 | 
32.5 µM | 64.2% | CCN(CC)c1ccc(/C=N/NC(=O)Nc2sc3c(c2C#N)CCCC3)c(O)c1 | 
49.6 µM | 52.3% | Cc1cc(C)c(/C=N/NC(=O)Nc2sc3c(c2C#N)CCCC3)c(C)c1 | 
29.5 µM | 68.2% | N#Cc1c(NC(=O)N/N=C/c2cccc(O)c2O)sc2c1CCCC2 | 
 | 7.69% | COC(=O)c1ccc(/C=N/NC(=O)Nc2sc3c(c2C#N)CCCC3)cc1 | 
46.4 µM | 67.2% | CN(C)c1ccc(/C=N/NC(=O)Nc2sc3c(c2C#N)CCCC3)cc1 | 
29.8 µM | 85.1% | Cc1ccc(/C=N/NC(=O)Nc2sc3c(c2C#N)CCCC3)cc1 | 
 | 48.4% | N#Cc1c(NC(=O)N/N=C/c2cccc(O)c2)sc2c1CCCC2 | 
 |  | COc1cccc2c1C(=O)c1c(O)c3c(c(O)c1C2=O)C[C@@](O)(C(=O)CO)C[C@@H]3O[C@H]1C[C@H](N)[C@H](O)[C@H](C)O1 [DOXORUBICIN] | viability at 100 µM [3]: 4%; viability at 100 µM [4]: 4%

IC50 [1] | inhibition (Saccharomyces cerevisiae) | Structure (SMILES) | further results
67.4 µM | 57.6% | N#Cc1c(NC(=O)N/N=C/c2ccc([N+](=O)[O-])cc2)sc2c1CCCC2 | 
 | 18.8% | COc1ccc(/C=N/NC(=O)Nc2sc3c(c2C#N)CCCC3)cc1 | 
49.2 µM | 59.5% | Cc1cccc(/C=N/NC(=O)Nc2sc3c(c2C#N)CCCC3)c1C | 
20.7 µM | 81.7% | N#Cc1c(NC(=O)N/N=C/c2ccc(O)cc2)sc2c1CCCC2 | 
9.26 µM | 86.3% | N#Cc1c(NC(=O)N/N=C/c2ccc(O)c(O)c2)sc2c1CCCC2 | Activity (Homo sapiens [5]): Dose-Dependent Effect; inhibition (Homo sapiens [6]): Active; viability at 100 µM [3]: 96%; viability at 100 µM [4]: 92.7%; Activity (Rattus norvegicus [2]): Active; Activity (Rattus norvegicus [7]): Active
 | 36.4% | COc1cc(/C=N/NC(=O)Nc2sc3c(c2C#N)CCCC3)cc(OC)c1 | 
 | 35.4% | Cc1cc(/C=N/NC(=O)Nc2sc3c(c2C#N)CCCC3)cc(C)c1O | 
33.8 µM | 63.1% | N#Cc1c(NC(=O)N/N=C/c2ccc(O)cc2O)sc2c1CCCC2 | 
 | 35.7% | N#Cc1c(NC(=O)N/N=C/c2ccc3c(c2)OC=CO3)sc2c1CCCC2 | 
 | 44.9% | N#Cc1c(NC(=O)N/N=C/c2ccccc2O)sc2c1CCCC2 | 
 | 48% | N#Cc1c(NC(=O)N/N=C/c2ccccc2OCc2ccccc2)sc2c1CCCC2 | 
11.4 µM | 89.5% | N#Cc1c(NC(=O)N/N=C/c2cc(O)cc(O)c2)sc2c1CCCC2 | Activity (Homo sapiens [5]): Dose-Dependent Effect; inhibition (Homo sapiens [6]): Active; viability at 100 µM [3]: 96.6%; viability at 100 µM [4]: 93.8%; Activity (Rattus norvegicus [2]): Active; Activity (Rattus norvegicus [7]): Active
 | 34.9% | Cc1ccc(/C=N/NC(=O)Nc2sc3c(c2C#N)CCCC3)c(O)c1 | 
 | 40.5% | N#Cc1c(NC(=O)N/N=C/c2cccc(OCc3ccccc3)c2)sc2c1CCCC2 | 
 | 27.8% | COc1ccc(/C=N/NC(=O)Nc2sc3c(c2C#N)CCCC3)cc1O | 
 | 31.4% | N#Cc1c(NC(=O)N/N=C/c2ccccc2)sc2c1CCCC2 | 
21.8 µM | 72.5% | N#Cc1c(NC(=O)N/N=C/c2ccc(Oc3ccccc3)cc2)sc2c1CCCC2 | 
54.4 µM | 72.2% | Cc1cc(/C=N/NC(=O)Nc2sc3c(c2C#N)CCCC3)ccc1O | 
 | 29.5% | Cc1cccc(/C=N/NC(=O)Nc2sc3c(c2C#N)CCCC3)c1O | 
